This is an account of results in article PMC5412877, “Discovery of a PCAF Bromodomain Chemical Probe” (Angewandte Chemie (International Ed. in English), 2016).

The target in one series is T1, HGCN5 Brd (Homo sapiens, UniProt Q92830).
T1 construct: made in house
T1 sequence (Q92830 728-832 limits assumed): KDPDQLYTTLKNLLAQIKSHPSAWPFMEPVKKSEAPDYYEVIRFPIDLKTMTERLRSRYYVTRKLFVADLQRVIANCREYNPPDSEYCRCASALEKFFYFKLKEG
As to the kind of experiment: Isothermal titration calorimetry (ITC), human GCN5 Brd. It counts as binding. Here is the method:
(§1) Isothermal Titration Calorimetry (ITC)
(§2) Experiments were carried out on a Nano-ITC Standard Volume Instrument (TA Instruments). All experiments were carried out at 25 °C in 20 mM HEPES pH 7.5, 150 mM NaCl, 0.5 mM TCEP and 5% glycerol. Protein solutions were buffer exchanged by gel filtration. The titrations were conducted using an initial injection of 2 μL followed by 32 injections of 8 μL. Background dilution heat was substracted from each experiment. Thermodynamic parameters were calculated using ΔG = ΔH-T ΔS = -RTlnKB , where KD = 1/KB. ΔG, ΔH and ΔS are changes in free energy, enathalpy and entropy resepectively. Independent single site binding models were employed in data analysis.
Supplemental Figure 2. ITC trace of L-Moses and PCAF Brd
(§3) Supplemental Figure 3. ITC trace of D-Moses and PCAF Brd […]

For another series, the target named is T2, GCN5L2 (Homo sapiens, UniProt Q92830).
T2 construct: made in house
T2 sequence (Q92830 728-832 limits assumed): T1 sequence (Q92830 728-832 limits assumed)
As to the kind of experiment: Differential scanning fluorimetry (DSF), GCN5 (GCN5L2) Brd. It counts as binding. The settings on record: compound 10 μM; 10 µM. As for the experimental part:
Protein Expression and Purification
Human bromodomains were cloned, expressed and purified as previously described.[1]
Differential Scanning Fluorimetry (DSF)
Thermal melting points were recorded using an Mx3005p Real Time PCR Machine (Stratagene).
Subject proteins were buffered in 10 mM HEPES at pH 7.5, 500 mM NaCl and assayed in a 96-well […]
plate at a final concentration of 2 μM in 20 μL volume. Compounds were then added to a final […]
concentration of 10 μM. SPYRO Orange (Molecular Probes) was used as a fluorescent probe at a […]
dilution of 1:1000. Excitation and emission filters for the SPYRO-Orange dye were set to 465 nm and […]
590 nm, respectively. The temperature was raised with a step of 3 °C/min from 25 °C to 96 °C and […]
fluorescence readings were taken at each interval. Data was analysed as previously described.[2]
Bromodomain affinity selectivity panel of (S)-11
Supplemental Figure 1. DSF Selectivity panel of (S)-11 against 48 human Bromodomains. […]
┼Mean ΔTm ± SEM (number of measurements= 2). Compound concentration: 10 μM […]
(1 picture or pasted object on this page, not shown here)
A general note: Differential scanning fluorimetry follows unfolding on heating by fluorescence.

For series [1], the target named is T3, PCAF Brd (Homo sapiens, UniProt Q92831).
T3 construct: Human bromodomains were cloned, expressed and purified as previously described; made in house
T3 sequence (Q92831 723-827 limits assumed): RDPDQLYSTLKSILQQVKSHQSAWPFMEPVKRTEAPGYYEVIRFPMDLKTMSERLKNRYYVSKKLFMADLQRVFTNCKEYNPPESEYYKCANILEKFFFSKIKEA
As to the kind of experiment: Isothermal titration calorimetry (ITC), PCAF Brd. It counts as binding. Here is the method: as §1, §2, §3

Series [2] is described as follows: Metabolic stability in human liver microsomes. It counts as in vitro ADME. The settings on record: human, liver microsomes; read-out: t1/2 human liver microsomes. As for the experimental part: (§4) In vitro Metabolism Studies
(§5) Metabolic stability studies were carried out exposing nominated compounds to samples of liver microsomes. Compounds were analysed by LC-MS for loss of compound at 0, 5, 15, 30 and 45 minute time points. The rate of metabolic degradation of compounds was used to calculate CLint, SE CLint, t1/2 (summarised in supplemental table 2.)
(§6) Supplemental Table 4. In vitro metabolic stability of compounds DL-45/DL-Moses and 39 Compound Metbolic Stability (Human) Metbolic Stability (Mouse) […]

Series [3] in a line: Metabolic stability in mouse liver microsomes. It counts as in vitro ADME. The settings on record: mouse, liver microsomes; read-out: t1/2 mouse liver microsomes. Here is the method:
as §4, §5, §6
(Microsomes from liver hold many membrane-bound enzymes, among them those of drug oxidation.)

Series [4] in a line: Permeability in MDCK-MDR1 cells. It counts as in vitro ADME. The settings on record: dog, direction not given.
A further series concerns the target T4, GST-PCAFBRD (Homo sapiens, UniProt Q92831).
T4 construct: Final assay concentrations: GST-PCAFBRD (20 nM)
T4 sequence (Q92831 723-827 limits assumed): T3 sequence (Q92831 723-827 limits assumed)
As to the kind of experiment: HTRF assay, displacement of biotinylated compound 46 from GST-PCAF Brd. It counts as binding. Here is the method: (§7) obtained from 5 healthy donors. PBMC were cultured either with D-Moses or L-Moses at concentrations of 0.1, 1 and 10 μM or with a control (DMSO) for 24 hours. Viability of PBMC were then checked using LIVE/DEAD Fixable Aqua Dead Cell Stain Kit (ThermoFisher Scientific).
(§8) High Throughput Time Resolved Fluorescence Assay (HTRF)
(§9) HTRF assay was carried out using a Cisbio Epigenous kit B (62BDBPEH) using the standard assay protocol with GST-PCAFBRD.[3] Final assay concentrations: GST-PCAFBRD (20 nM), SA-XL665 (62.5 nM), α-GST donor (62.5 nM), compound 46 (500 nM). Ki was calculated using the Cheng-Prussof equation […]
(§10) Recombinant PfGCN5 (bromodomain only) was expressed in E. coli and purified using a previously described system. The protein crystallized with the compound L-45 at 293 K in 0.1M CaCl2, 30% PEG 8k, 0.2 M NH4SO4. The concentrations of the protein sample and the compound were 10 mg/ml […]
(§11) X-ray diffraction data for the crystal was collected at 100 K at the beamline 08ID-1 of the Canadian Macromolecular Crystallography Facility. The dataset was processed using the HKL-2000 suite, and the structure solved using Phaser, a component of the CCP4 suite with molecular replacement model 4QNS. […]
On the technique in general: TR-FRET usually uses a lanthanide donor and a delayed reading to cut background.

Series [5] concerns the target T5, PCAF‐Brd histone H3.3 interaction (Homo sapiens, UniProt Q92831).
T5 construct: NanoLuciferase fusion of the isolated bromodomain of PCAF; expressed in transfected cells; host or cells: HEK293
T5 sequence (Q92831 723-827 limits assumed): T3 sequence (Q92831 723-827 limits assumed)
As to the kind of experiment: nanoBRET target engagement assay, PCAF-Brd / histone H3.3 in HEK293 cells. It counts as cell-based. The settings on record: live HEK293 cells; compounds 5 μM, 18 h. As for the experimental part:
page 48: NanoLuciferase Bioluminescent Resonance Energy Transfer (NanoBRET) Assay Methods HEK293 cell (8 x 105) were plated in each well of a 6-well plate and co-transfected with Histone H3.3- HaloTag (NM_002107) and a NanoLuciferase fusion of the isolated bromodomain of PCAF. Twenty hours post-transfection, cells were collected, washed with PBS, and exchanged into media containing phenol red-free DMEM and 4% FBS in the absence (control sample) or the presence (experimental sample) of 100 nM NanoBRET 618 fluorescent ligand (Promega). Cell density was adjusted to 2 x 10^5 cells/ml and then re-plated in a 96-well assay white plate (Corning Costar #3917). […] Readings were performed within 5 minutes using a Glo-MAX Discover instrument (Promega) equipped with 450/8 nm bandpass and 600 nm longpass filters with a 0.3 sec reading setting. A corrected BRET ratio was calculated and is defined as the ratio of the emission at 600 nm/450 nm for experimental samples (i.e. those treated with NanoBRET fluorescent ligand) subtracted by and the emission at 600 nm/450 nm for control samples (not treated with NanoBRET fluorescent ligand). BRET ratios are expressed as milliBRET units (mBU), where 1 mBU corresponds to the corrected BRET ratio multiplied by 1000. […] Compounds were analysed by LC-MS for loss of compound at 0, 5, 15, 30 and 45 minute time points. […]

Series [6] deals with peripheral blood mononuclear cells (PBMC). As to the kind of experiment: Cytotoxicity in peripheral blood mononuclear cells (PBMC). It counts as cell-based. The settings on record: 10 μM for 24 hours. As for the experimental part:
as §7, §8, §9, §10, §11

Series [7] has as its target T3, PCAF Brd. As to the kind of experiment: Differential scanning fluorimetry (DSF), PCAF Brd. It counts as binding. The settings on record: compound concentration 100 μM.
For a further series, the system named is PCAF. Set-up: method as in earlier work. The settings on record: read-out: PCAF AlphaLISA IC50; cited from earlier work.
For series [8], the system named is PCAF Brd. The settings on record: cited from earlier work.
Another series has as its system HIV‐1. The settings on record: read-out: HIV-1 EC50; cited from earlier work.

Read-outs that look alike come from different tables or passages of the source. Marks after values point to notes of the source that are not given here.

With `Cc1nnc2c3ccccc3c(N[C@@H](C)[C@H](c3ccccc3)N(C)C)nn12` [L‐45], the Kd was found to be 550 nM at HGCN5 Brd and 126 ± 15 nM at PCAF Brd [1] (Table 2, read-out: K D (nM) (ITC) PCAF Brd). For the same molecule, the “GCN5L2 ΔTm (°C) (DSF)” value on GCN5L2 was “+3.6 °C”. The half-life came out at 40 min in [2] and 38 min in series [3]. The Papp in series [4] (MDCK-MDR1, first of 59/70, read-out: MDCK-MDR1 permeability, first value of the pair) worked out at 59 ×10⁻⁶ cm/s; in series [4] (MDCK-MDR1, second of 59/70, read-out: MDCK-MDR1 permeability, second value of the pair), 70 ×10⁻⁶ cm/s. The Ki – broadly, a dissociation constant, usually derived from enzyme kinetics or from competition with a known ligand – on GST-PCAFBRD came to 47 nM. In series [5], the “displacement of PCAF‐Brd from H3.3 in nanoBRET assay” value is given as “single digit μM concentration”. Also, the “cytotoxicity in PBMC” value in [6] was “no observable cytotoxicity”.
Take `Cc1nnc2c3ccccc3c(NCCN(C)C)nn12` [Compound 7]: the Kd is 7980 nM at PCAF Brd [1] (Supplemental Table 3, compound concentration 30 μM, protein concentration 280-320 μM, read-out: PCAF KD (μM) (ITC)) and 8000 ± 650 nM at PCAF Brd [1] (Table 1, read-out: K D [μM] (ITC) PCAF Brd). Also, the “ΔT m [°C] PCAF (DSF)” value on PCAF Brd [7] was 8.5^[b] °C.
On to `CC(C)C[C@H]1C[C@@H](Nc2cnn(C)c(=O)c2Cl)CN(C)C1` [Compound 3], for which, in the series with PCAF, the IC50 (as a rule, the point on the concentration scale where inhibition reaches its midpoint) was 13 nM.
On to `NCCCNCc1ccc(NCCCN)[n+]([O-])c1` [Compound 2], for which the IC50 in the series with PCAF Brd [8] is 930 nM. Further, in the series on HIV‐1, the EC50 (as a rule, the concentration that produces a half-maximal response) is 11500 nM.
